# Reference: PubChem BioAssay AID330 (DTP/NCI, 2004)
# Where “and” joins values, the source holds several entries; their conditions need not be identical. Identical values can stand only once. Inconclusive results and toxic doses are left out.
# Test system: P388 leukemia ip, CD2F1 mice, survival T/C
# Assay: NCI In Vivo Anticancer Drug Screen. Data for tumor model P388 Leukemia (intraperitoneal) in CD2F1 (CDF1) mice
# Conditions: endpoint: median survival time, higher = longer survival
# In short: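 Mice carrying the transplanted tumor received test compound or vehicle. Survival was recorded in each group, and the value is the treated-group measurement divided by that of the vehicle-treated control group.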
# [1] = dose: 50.0 mg/kg/injection, schedule: Q01DX009 (ip), vehicle: saline with Tween-80
# [2] = dose: 100.0 mg/kg/injection, schedule: Q01DX009 (ip), vehicle: saline with Tween-80
# [3] = dose: 200.0 mg/kg/injection, schedule: Q01DX009 (ip), vehicle: saline with Tween-80
# [4] = dose: 50.0 mg/kg/injection, schedule: Q01DX005 (ip), vehicle: Klucel (hydroxypropylcellulose) (HPC)
# [5] = dose: 50.0 mg/kg/injection, schedule: Q01DX005 (ip), vehicle: saline with Tween-80
# [6] = dose: 100.0 mg/kg/injection, schedule: Q01DX005 (ip), vehicle: saline with Tween-80
# [7] = dose: 200.0 mg/kg/injection, schedule: Q01DX005 (ip), vehicle: saline with Tween-80
# [8] = dose: 60.0 mg/kg/injection, schedule: Q01DX005 (ip), vehicle: saline with Tween-80
# [9] = dose: 120.0 mg/kg/injection, schedule: Q01DX005 (ip), vehicle: saline with Tween-80
# [10] = dose: 100.0 mg/kg/injection, schedule: Q01DX005 (ip), vehicle: Klucel (hydroxypropylcellulose) (HPC)
# [11] = dose: 200.0 mg/kg/injection, schedule: Q01DX005 (ip), vehicle: Klucel (hydroxypropylcellulose) (HPC)
compound,measurement,setting,value
CCCC(=O)OCc1cc(=O)n(C)c2c3c4c(cc12)c(C)cc(=O)n4CO3,T/C,"dose: 12.5 mg/kg/injection, schedule: Q01DX009 (ip), vehicle: other",157 % of control
same,T/C,"dose: 25.0 mg/kg/injection, schedule: Q01DX009 (ip), vehicle: other",151 % of control and 171 % of control
same,T/C,"dose: 50.0 mg/kg/injection, schedule: Q01DX009 (ip), vehicle: other",163 % of control
CN(C)C(=[Se])[Se]C(=[Se])N(C)C,T/C,"dose: 3.75 mg/kg/injection, schedule: Q01DX005 (ip), vehicle: Klucel (hydroxypropylcellulose) (HPC)",99 % of control
same,T/C,"dose: 7.5 mg/kg/injection, schedule: Q01DX005 (ip), vehicle: Klucel (hydroxypropylcellulose) (HPC)",99 % of control
same,T/C,"dose: 15.0 mg/kg/injection, schedule: Q01DX005 (ip), vehicle: Klucel (hydroxypropylcellulose) (HPC)",100 % of control
Cc1ccc2c(c1)NC(c1cccc(N=Cc3cc(Cl)cc(Cl)c3O)c1)c1cccn1-2 (stereo not given),T/C,[1],86 % of control
same,T/C,[2],91 % of control
same,T/C,[3],96 % of control
CSC(C#N)(c1ccccc1)N(C)C (stereo not given),T/C,"dose: 25.0 mg/kg/injection, schedule: Q04DX003 (ip), vehicle: suspension in saline",106 % of control
same,T/C,"dose: 50.0 mg/kg/injection, schedule: Q04DX003 (ip), vehicle: suspension in saline",103 % of control
same,T/C,"dose: 100.0 mg/kg/injection, schedule: Q04DX003 (ip), vehicle: saline with Tween-80",103 % of control
same,T/C,"dose: 100.0 mg/kg/injection, schedule: Q04DX003 (ip), vehicle: suspension in saline",96 % of control
COc1ccc(-c2cc(=O)c3ccc4c(O)cccc4c3o2)cc1,T/C,[1],94 % of control
same,T/C,[2],100 % of control
same,T/C,[3],97 % of control
same,T/C,"dose: 400.0 mg/kg/injection, schedule: Q01DX009 (ip), vehicle: saline with Tween-80",90 % of control
COc1ccc(/C=C/C(=O)OC2CC34CCNC35CC(OC5(OC)C2OC)c2ccc(OC)c(O)c24)cc1O (stereo not given),T/C,"dose: 12.5 mg/kg/injection, schedule: Q01DX005 (ip), vehicle: Klucel (hydroxypropylcellulose) (HPC)",100 % of control
same,T/C,"dose: 25.0 mg/kg/injection, schedule: Q01DX005 (ip), vehicle: Klucel (hydroxypropylcellulose) (HPC)",100 % of control
same,T/C,[4],97 % of control
CCCCCCCCC[N+](C)([O-])CCCCCC[N+](C)([O-])CCCCCCCCC (stereo not given),T/C,"dose: 12.5 mg/kg/injection, schedule: Q04DX003 (ip), vehicle: saline",103 % of control
same,T/C,"dose: 25.0 mg/kg/injection, schedule: Q04DX003 (ip), vehicle: saline",96 % of control
same,T/C,"dose: 50.0 mg/kg/injection, schedule: Q04DX003 (ip), vehicle: saline",93 % of control
COC(=O)CCCCCCCCCCCCCC1C=CCC1 (stereo not given),T/C,"dose: 100.0 mg/kg/injection, schedule: Q01DX001 (ip), vehicle: saline",101 % of control
same,T/C,"dose: 200.0 mg/kg/injection, schedule: Q01DX001 (ip), vehicle: saline",100 % of control
same,T/C,"dose: 400.0 mg/kg/injection, schedule: Q01DX001 (ip), vehicle: saline",101 % of control
NC1=NCCCN1,T/C,"dose: 3.0 mg/kg/injection, schedule: Q01DX009 (ip), vehicle: saline",95 % of control
same,T/C,"dose: 6.0 mg/kg/injection, schedule: Q01DX009 (ip), vehicle: saline",104 % of control
same,T/C,"dose: 12.0 mg/kg/injection, schedule: Q01DX009 (ip), vehicle: saline",90 % of control
Cn1c(CCCC(=O)O)nc2cc(N(CCCl)CCCl)ccc21,T/C,"dose: 5.0 mg/kg/injection, schedule: Q01DX009 (ip), vehicle: saline sonified",154 % of control
same,T/C,"dose: 9.9 mg/kg/injection, schedule: Q04DX003 (ip), vehicle: saline with Tween-80",150 % of control
same,T/C,"dose: 10.0 mg/kg/injection, schedule: Q01DX009 (ip), vehicle: saline sonified",168 % of control
same,T/C,"dose: 22.5 mg/kg/injection, schedule: Q04DX003 (ip), vehicle: saline with Tween-80",163 % of control
CC(NNC(=S)N1CC2CCC(CC2)C1)c1cccc[n+]1[O-] (stereo not given),T/C,[5],101 % of control
same,T/C,[6],100 % of control
same,T/C,[7],100 % of control
O=C1CC2c3ccccc3CCN2C2=C1CCC2 (stereo not given),T/C,[5],96 % of control
same,T/C,[6],104 % of control
CC1CC(=O)OC(C(=O)c2ccccc2)N1c1ccc(C(F)(F)F)cc1N (stereo not given),T/C,[8],110 % of control
same,T/C,[9],108 % of control
same,T/C,"dose: 240.0 mg/kg/injection, schedule: Q01DX005 (ip), vehicle: saline with Tween-80",109 % of control
CCOc1ccc(NC(=S)NC2OC(COC(C)=O)C(OC(C)=O)C(OC(C)=O)C2OC(C)=O)cc1 (stereo not given),T/C,[5],101 % of control
same,T/C,[6],91 % of control
same,T/C,[7],92 % of control
Cc1ccc(Sc2ccc3ccccc3n2)cc1,T/C,[5],90 % of control
same,T/C,[6],101 % of control
same,T/C,[7],104 % of control
CCCCCC(=O)NC1C(O)OC(CO)C(O)C1O (stereo not given),T/C,[4],106 % of control
same,T/C,[10],97 % of control
CCOP1(=O)CCCCN1Cc1ccccc1 (stereo not given),T/C,"dose: 50.0 mg/kg/injection, schedule: Q01DX009 (ip), vehicle: saline",100 % of control
same,T/C,"dose: 100.0 mg/kg/injection, schedule: Q01DX009 (ip), vehicle: saline",103 % of control
CC(=O)NS(=O)(=O)c1ccc(N=NC2=C(O)C(c3ccccc3)N(c3ccccc3)C2=O)cc1 (stereo not given),T/C,[8],96 % of control
same,T/C,[9],91 % of control
O=c1c2ccccc2sc2c([N+](=O)[O-])ccc(NCCC3CCCN4CCCCC34)c12 (stereo not given),T/C,"dose: 44.5 mg/kg/injection, schedule: Q01DX005 (ip), vehicle: saline with Tween-80",95 % of control
same,T/C,"dose: 89.0 mg/kg/injection, schedule: Q01DX005 (ip), vehicle: saline with Tween-80",94 % of control
same,T/C,"dose: 178.0 mg/kg/injection, schedule: Q01DX005 (ip), vehicle: saline with Tween-80",96 % of control
same,T/C,"dose: 356.0 mg/kg/injection, schedule: Q01DX005 (ip), vehicle: saline with Tween-80",100 % of control
O=S1(=O)OC2(CCCCC2)c2ccccc21,T/C,"dose: 50.0 mg/kg/injection, schedule: Q01DX009 (ip), vehicle: Klucel (hydroxypropylcellulose) (HPC)",106 % of control
same,T/C,"dose: 100.0 mg/kg/injection, schedule: Q01DX009 (ip), vehicle: Klucel (hydroxypropylcellulose) (HPC)",108 % of control
same,T/C,"dose: 200.0 mg/kg/injection, schedule: Q01DX009 (ip), vehicle: Klucel (hydroxypropylcellulose) (HPC)",108 % of control
same,T/C,"dose: 400.0 mg/kg/injection, schedule: Q01DX009 (ip), vehicle: Klucel (hydroxypropylcellulose) (HPC)",109 % of control
CN(C)CCC(=O)C1CC1,T/C,"dose: 12.5 mg/kg/injection, schedule: Q01DX005 (ip), vehicle: suspension in saline",94 % of control
same,T/C,"dose: 25.0 mg/kg/injection, schedule: Q01DX005 (ip), vehicle: suspension in saline",97 % of control
same,T/C,[5],92 % of control
same,T/C,"dose: 50.0 mg/kg/injection, schedule: Q01DX005 (ip), vehicle: suspension in saline",100 % of control
COC(C)C(NC=O)C(=O)O (stereo not given),T/C,"dose: 50.0 mg/kg/injection, schedule: Q01DX005 (ip), vehicle: saline",100 % of control and 99 % of control
same,T/C,"dose: 100.0 mg/kg/injection, schedule: Q01DX005 (ip), vehicle: saline",96 % of control and 98 % of control
same,T/C,"dose: 200.0 mg/kg/injection, schedule: Q01DX005 (ip), vehicle: saline",100 % of control and 91 % of control
CC1(C)OC1CS(=O)c1ccccc1 (stereo not given),T/C,[1],101 % of control
same,T/C,"dose: 66.0 mg/kg/injection, schedule: Q01DX009 (ip), vehicle: saline with Tween-80",99 % of control
same,T/C,[2],99 % of control and 121 % of control
same,T/C,[3],114 % of control
CC1CCC2C(OC(=O)C23CO3)C2(C)C(=O)C=CC12 (stereo not given),T/C,"dose: 2.5 mg/kg/injection, schedule: Q01DX009 (ip), vehicle: saline + alcohol",86 % of control
same,T/C,"dose: 5.0 mg/kg/injection, schedule: Q01DX009 (ip), vehicle: saline + alcohol",100 % of control
same,T/C,"dose: 10.0 mg/kg/injection, schedule: Q01DX009 (ip), vehicle: saline + alcohol",101 % of control
same,T/C,"dose: 20.0 mg/kg/injection, schedule: Q01DX009 (ip), vehicle: saline + alcohol",99 % of control
CN1OC(CS(=O)(=O)c2ccccc2)(S(=O)(=O)c2ccccc2)CC1c1ccccc1 (stereo not given),T/C,[4],103 % of control
same,T/C,[10],101 % of control
same,T/C,[11],101 % of control
Cn1c(=O)[nH]c(Sc2ccccc2)c(C=O)c1=O,T/C,"dose: 100.0 mg/kg/injection, schedule: Q01DX001 (ip), vehicle: saline with Tween-80",104 % of control
same,T/C,"dose: 200.0 mg/kg/injection, schedule: Q01DX001 (ip), vehicle: saline with Tween-80",101 % of control
CCC1C2CCCCN3C(C4CC(C)C(=O)O4)CC(C4C(C)C(=O)OC14)C23 (stereo not given),T/C,[4],101 % of control
same,T/C,[10],96 % of control
same,T/C,[11],97 % of control
same,T/C,"dose: 400.0 mg/kg/injection, schedule: Q01DX005 (ip), vehicle: Klucel (hydroxypropylcellulose) (HPC)",91 % of control
